Results: US8916612B2, “Agmatine containing dietary supplements, nutraceuticals, and foods” (priority 2008, dated 2014)

Tests used:
humans = experiment: Open label dose-escalating safety and tolerability study of dietary agmatine sulfate capsules (Example I); assay type: in vivo, human; settings: for Adverse Effects (no. of participants): Nausea and Diarrhea: 12 participants
Protocol: This study is based on administration to humans weighing 60 to 70 kg.
Agmatine sulfate was manufactured according to international standards ISO 9001. It was encapsulated under cGMP (current Good Manufacturing Practice) conditions in gelatin-glycerin capsules as the sole active ingredient of the dietary supplement and the capsules packaged in properly labeled plastic container bottles.
The study was performed at Tel-Aviv Sourasky Medical Center, Israel and approved by the Institutional Review Board (Trial Number: 05-302) and by the Israel Ministry of Health National Review Board (Trial Number: 20050479), and conducted in accordance with the Helsinki guidelines under current Good Clinical Practice (cGCP) and the International Conference on Harmonization (ICH) guidelines. All procedures were performed after participants had read, understood and signed the informed consent form. Eligibility of consenting participants was determined after medical history recording, comprehensive clinical examination, and laboratory tests of blood samples to ensure inclusion/exclusion criteria.
Inclusion Criteria: 1) Men and women 18-75 years of age, including also those diagnosed with spine skeletal pathologies causing nerve compression. 2) Women must be non-pregnant, non-lactating, or sterilized, or postmenopausal. 3) All participants must give a signed informed consent.
Exclusion Criteria: 1) Those with any significant clinical, medical or surgical condition, such as: cardiovascular, pulmonary, hepatic, renal, immune, endocrine, metabolic, digestive, malignancy, or allergic, and those with deviations from the normal laboratory test values. 2) Those with any neuromuscular diseases (other than spine skeletal pathologies causing nerve compression). 3) Those with any neurological diseases. 4) Those with any history of alcohol or substance abuse within the last 2 years. 5) Those with gastric ulcer history. 6) Those who took any experimental drug within 90 days prior to screening. 7) Women who are pregnant or breast feeding. 8) Those participating in other clinical trials.
At the starting day of the study eligible participants began taking the supplement and had the option of receiving concomitantly any conventional treatment [e.g. drug treatment or physiotherapy] as needed for their welfare, and this was recorded throughout the duration of the study. However, any other experimental drug or dietary supplement was disallowed.
Table 1 details the escalating doses and regimens taken by the consecutive cohorts. Following screening to ensure inclusion/exclusion criteria, 48 men and women, 28 to 70 years old were recruited consecutively to the study after they gave a signed informed consent. Eligible participants took 3 times a day, after meals (morning, noontime and evening), the specified daily dose of agmatine sulfate capsules. Each capsule contained 445 mg of agmatine sulfate (Table 1).
Before beginning and within 5 days after termination—and before the next cohort began taking the supplement—all cohort participants underwent thorough clinical evaluation and routine laboratory tests of blood samples to ascertain normal function of the cardiovascular, hepatic, renal, immune and metabolic systems.
In-person evaluations were performed at: 11-15 days, 22-25 days, 40-45 days after treatment starting day (day 1), and then telephone interview evaluations every 3-6 months for the duration of the trial. The flow chart (2) outlined in FIG. 2 illustrates the treatment and follow-up schedules as exemplified for a 10-day cohort. In addition, participants received a “participant diary” for self recording of any outstanding health related events during the treatment interval.
For the sake of privacy, all records and data were identified only by participants' code number. All “source data” documents were stored in individual patient files and kept at the clinical center by the principal investigator and copies are kept with the study sponsor. […]

[1] = system: facial nerve crush in male Wistar rats; experiment: Vibrissae functional recovery after facial nerve crush following prior agmatine sulfate intake (Example III); assay type: in vivo, rat
Protocol: The experiment was performed at Assaf Harofeh Medical Center, Israel, with 4-month-old male Wistar rats (Harlan, Israel) kept under standard conditions in the Institute's vivarium according to the Institutional Animal Care and Use Committee approved protocols (see Example II above). […] rats were divided into 2 groups of 14 animals each, one group drank sterile water containing agmatine sulfate 5.3 g/l, while the other drank regular sterile drinking-water for a period of 21 days. On day 21 both groups were switched to drink regular tap water. In 7 rats from each group the facial nerve was crushed unilaterally while the other 7 were left unoperated. Surgery was performed under halothane anesthesia (1.5% in 100% 02) and the facial nerve was crushed unilaterally at the stylomastoid foramen for 20 seconds with a jeweler's forceps under the operating microscope.
Transection of the facial nerve, which innervates the upper and lower lips results in paralysis of the vibrissae (whiskers) on the operated side. Functional recovery was assessed by evaluation of vibrissae movement for up to 14 days postoperatively using the following arbitrary scale of 0 to 4:0, complete paralysis with vibrissae flattened backwardly; —1, slight vibrating motion; —2, mild proximal vibrating motion; —3 moderate motion of vibrissae and lips; 4, full motion of lower face and vibrissae. Results were evaluated by analysis of variance (ANOVA) procedure followed by Bonferroni post hoc testing and differences considered significant at p<0.05.
B. sterile water containing agmatine and unoperated (controls, semisolid circle). C. Regular sterile drinking-water and nerve crush (solid square). D. sterile water containing agmatine and nerve crush (solid triangle). Results are the mean (±SEM, vertical lines) values of 7 animals. *=p<0.001 comparing group C to group D values.

male Wistar rats = experiment: Sub-chronic intake of high dose agmatine sulfate in the drinking water (Example II); assay type: in vivo, rat
Protocol: The experiment was performed at Assaf Harofeh Medical Center, Israel, according to the Institutional Animal Care and Use Committee approved protocol. Three-month-old male Wistar rats (Harlan, Israel) weighing 250±20 g were caged individually under standard vivarium conditions of temperature (22±2° C.), humidity (55-75%) and light (12 h light-dark cycle) with a free supply of food and water. Experimental animals (n=10) drank sterile water containing agmatine sulfate 5.3 g/l, while controls (n=10) drank regular sterile drinking-water for 95 days. Drinking-water containing agmatine sulfate have bitter taste.
Animal body weight and systolic blood pressure (SBP) as measured by tail-cuff plethysmography (IITC Life Science, Woodland Hills, Calif.) were measured at the starting day of the experiment (day 1) and at various intervals thereafter. General behavior, fur appearance and feces appearance were also assessed. Water consumption was measured daily. After 95 days, 5 animals of each group were deeply anesthetized ([…] sodium pentobarbital, intraperitoneal) and the stomach, kidney, heart and liver removed for gross inspection. The stomach was inspected for appearance of ulcers. The rest of the animals, in both the control and experimental groups, were all maintained on regular diet (without agmatine sulfate in the drinking-water) for additional 20 days and then killed (on the 115th day). Results were evaluated by analysis of variance (ANOVA) procedure. Differences were analyzed by 2-tailed t-test and values of p≦0.05 were considered statistical significant. For data normalization, differences were expressed as percent change of day 1 values.

[2] = 4th Cohort, 3.560 g/day for 21 days

SMILES: N=C(N)NCCCCN.O=S(=O)(O)O [agmatine sulfate]
- Adverse Effects (no. of participants): Nausea and Diarrhea (humans; 3rd Cohort, 3.560 g/day for 10 days): 1
- Onset of diarrhea and nausea during treatment (humans; 3.560 g/day): 2 to 3 days
- Time to disappearance of diarrhea and nausea after treatment cessation (humans; 3.560 g/day): ≤ 2 days
- Discontinuations - Due to Adverse Effects (no. of participants) (humans; [2]): 1
- Free Will Discontinuations (no. of participants) (humans; [2]): 1
- Adverse Effects (no. of participants): Nausea and Diarrhea (humans; [2]): 2
- Clinical examinations and laboratory analyses of blood samples (humans; all 48 participants, 1.335-3.560 g/day): no abnormality in any parameter studied
- Number of participants who failed to complete the study (humans; of 48 participants): 2
- Number of participants reporting mild-to-moderate side effects (diarrhea and nausea) (humans; of 48 participants, all at 3.560 g/day): 3
- Adverse effects (humans; oral doses of up to 3.56 g/day): only mild, reversible diarrhea was observed
- Day after injury at which nearly full recovery of vibrissae movement is achieved ([1]; controls: day 14): 12 days
- Increase in vibrissae motion as compared to controls (group C) ([1]; day 10 after injury, 5.3 g/l in drinking water for 21 days before crush): 181.2%
- Recovery of vibrissae movement ([1]; group D vs group C, p<0.001): significantly accelerated recovery of vibrissae movement
- General cage behavior, fur appearance and feces appearance (male Wistar rats; 95 days treatment): all normal
- Blood Pressure (% Change), percent of day 1 (male Wistar rats; Day 1): (100) %
- Body Weight (% Change), percent of day 1 (male Wistar rats; Day 1): (100) %
- Daily Drinking (% Change), percent of day 1 (male Wistar rats; Day 1): (100) %
- Blood Pressure (% Change), percent of day 1 (male Wistar rats; Day 21): (97.3) %
- Body Weight (% Change), percent of day 1 (male Wistar rats; Day 21): (97.6) %
- Daily Drinking (% Change), percent of day 1 (male Wistar rats; Day 21): (72.1) %
- Blood Pressure (% Change), percent of day 1 (male Wistar rats; Day 95): (96.9) %
- Body Weight (% Change), percent of day 1 (male Wistar rats; Day 95): (102.2) %
- Daily Drinking (% Change), percent of day 1 (male Wistar rats; Day 95): (83.9) %
- Blood Pressure (% Change), percent of day 1 (male Wistar rats; Day 115): (99.1) %
- Body Weight (% Change), percent of day 1 (male Wistar rats; Day 115): (103.9) %
- Daily Drinking (% Change), percent of day 1 (male Wistar rats; Day 115): (99.7) %
- Weight gain after switch to regular drinking water (male Wistar rats; after 95 days of treatment): recovery in weight gain within 20 days
- Weight gain (male Wistar rats; during treatment): reduced weight gain with actual weight loss during the first 3 weeks of treatment
- Volume of water intake (male Wistar rats; during treatment, 5.3 g/l in drinking water): reduction in volume of water intake
- Systolic blood pressure (male Wistar rats; during treatment, recovered 20 days after cessation): slight, but significant reduction
